What was measured:
[1] = system: RPMI8226 myeloma cell line; assay: CellTiter-Glo luminescent cell viability assay, RPMI8226; type: cell-based, human; set-up: unit of the concentration uncertain
Protocol: (§1) The dosage of each derivative was set at 2, 0.2 and 0.02 mM. A cell culture medium control and 0.5% DMSO control was maintained in each experiment. The cell viability was tested each day over a period of five days using the CellTiter-Glo luminescent cell viability assay kit from Promega Co.
Cell Titer-Glo luminescent cell viability assay kit from Promega Co (Madison, Wis.) was used to determine cell growth inhibition by the various compounds tested. The kit determines cell viability by quantifying the amount of ATP present in the cell culture medium. Presence of ATP signals the presence of metabolically active cells (3). The intensity of luminescence was measured by a computerized luminometer (Promega, Co. Madison, Wis.). Each well was read five times within 30 minutes of adding Cell Titer-Glo reagent mixture. […]

[2] = system: NCI-60 cancer panel; conditions: average across the cell lines of the concentration at which growth is inhibited 50%; unit in the High Conc. footnote; cited from earlier work
[3] = 50 mg/kg; intraperitoneal injection; P388 Leukemia-bearing CD2F1 mice; cited from earlier work
[4] = system: 8226/Dox1V cells; assay: Drug resistance and cytotoxicity MTT assay, 8226/Dox1V; type: cell-based, human
Protocol: FIGS. 13A-13B show dose response of RPMI 8226 and 8226/Dox1V myeloma cells to EPED3 (FIG. 13A) or Dox (FIG. 13B). Cells were incubated for 96 hours with drug concentrations as indicated and analyzed by MTT assays; linear regression analysis was used to determine the IC50 for each drug (EPED3, FIG. 13A; Dox, FIG. 13B) and each cell line (RPMI8226, squares; 8226/Dox1V, circles). Data are presented as the mean of four independent experiments.
The 8226/Dox1V cell line was established by chronic exposure to Dox in presence of P-glycoprotein inhibitor, verapamil and was characterized by reduced expression and activity of topo II (Futscher et al., 1993).
The 8226/Dox1V and its parental line, RPMI 8226, cells were plated in 96-well plates at 10,000 cells/well and incubated with serial dilutions of EPED3 or Dox, as previously described (Landowski et al., 1999). After 96 hours incubation at 37° C., MTT was added to each well at a final concentration of 20 μg/ml and incubated an additional 4 hours. Plates were centrifuged and the media replaced with 0.1 ml DMSO to solublize the formazan complex. Optical density was measured at 540 nm using a Bio-Tek microplate spectrophotometer. IC50 values were calculated by linear regression analysis (Origins® Software Technologies, Inc.) of the log-linear plot for percent survival versus log drug concentration.
In drug resistance studies, the efficacy of EPED3 with 8226/Dox1V cells and the parental line, RPMI 8226 cells was investigated. Both cell lines were treated with either EPED3 or Dox, and the MTT assays were used to assess cell growth. Linear regression analysis of 96-hour dose-response curves was used to compare cytotoxicity of EPED3 in 8226/Dox1V and RPMI 8226 cell lines.

[5] = NCI in vivo screening data; cited from earlier work
[6] = system: CAG myeloma cell line; assay: CellTiter-Glo luminescent cell viability assay, CAG; type: cell-based, human; set-up: unit of the concentration uncertain
Protocol: as §1
(§2) Cell Titer-Glo luminescent cell viability assay kit from Promega Co (Madison, Wis.) was used to determine cell growth inhibition by the various compounds tested. The kit determines cell viability by quantifying the amount of ATP present in the cell culture medium. Presence of ATP signals the presence of metabolically active cells (3). The intensity of luminescence was measured by a computerized luminometer (Promega, Co. Madison, Wis.). Each well was read five times within 30 minutes of adding Cell Titer-Glo reagent mixture.
(§3) Cells were contacted with the antineoplastic agents in ninety six well culture plates. The concentration of each neoplastic agent was maintained a constant. A cell culture medium control and 0.5% DMSO control were maintained in each set of experiments. The cell viability was tested every day using the CellTiter-Glo luminescent cell viability kit from Promega Co. (Madison, Wis.) for a period of five days.

[7] = system: Fetal bone mesenchymal cells; assay: Selectivity: viability of normal fetal bone mesenchymal cells (CellTiter-Glo); type: cell-based, human; conditions: 0.01-1.0 mM; five days
Protocol: The cell viability was tested every day for a period of five days. It was observed that these cells were not killed by the concentrations that were otherwise toxic to the myeloma cells.
Fetal bone mesenchymal cells were contacted with NSC 338258 in ninety six well culture plates. The concentrations of NSC 338258 were set at 0.01, 0.03. 0.1, 0.3 and 1.0 mM (FIG. 7).

[8] = system: Ark myeloma cell line; assay: CellTiter-Glo luminescent cell viability assay, Ark; type: cell-based, human; set-up: unit of the concentration uncertain
Protocol: as §1, §2, §3

[9] = system: myeloma cells; assay: Velcade sensitivity of myeloma cells without and with stromal co-culture; type: cell-based, human
Excerpt: The bone marrow microenvironment augments myelomagenesis and can protect myeloma cells from destruction when patients undergo systemic and supportive therapies. In vitro, via direct cell-cell adhesion or soluble factors generated by […] interactions, myeloma cells are reportedly well protected from chemotherapeutic agents (Nefedova et al., 2001).

With `Cc1c2ccncc2c(C)c2c1[nH]c1ccc(OCCN(C)C)cc12` [NSC 338258, ellipticine, 9-dimethyl amino-ethoxy-] as the compound, how does the “cell viability (CellTiter-Glo luminescent assay)” value (“cell viability” for short) ([1]; 0.02 (unit uncertain), Day 1) read?
The value was 94,826.

And the “cell viability” value ([1]; 0.02 (unit uncertain), Day 2)?
The value was 180,382.

What about the “cell viability” value ([1]; 0.02 (unit uncertain), Day 3) of the same compound?
The value was 302,609.

What about the “cell viability” value ([1]; 0.02 (unit uncertain), Day 4) of the same compound?
Its value is 516,569.

What about the “cell viability” value ([1]; 0.02 (unit uncertain), Day 5) of the same compound?
Its value is 777,427.

What about the “cell viability” value ([1]; 0.2 (unit uncertain), Day 1) of the same compound?
The value was 3,790.

And the “cell viability” value ([1]; 0.2 (unit uncertain), Day 2)?
Its value is 2,320.

And the “cell viability” value ([1]; 0.2 (unit uncertain), Day 3)?
The value was 1,254.

And the “cell viability” value ([1]; 0.2 (unit uncertain), Day 4)?
The value was 1,026.

What about the “cell viability” value ([1]; 0.2 (unit uncertain), Day 5) of the same compound?
Its value is 321.

And the “cell viability” value ([1]; 2 (unit uncertain), Day 1)?
The value was 4,685.

And the “cell viability” value ([1]; 2 (unit uncertain), Day 2)?
Its value is 923.

What about the “cell viability” value ([1]; 2 (unit uncertain), Day 3) of the same compound?
The value was 871.

What about the “cell viability” value ([1]; 2 (unit uncertain), Day 4) of the same compound?
Its value is 234.

What about the “cell viability” value ([1]; 2 (unit uncertain), Day 5) of the same compound?
Its value is 104.

What about the “Mean GI50” value [2] of the same compound?
The value was −6.57 log^10 molar.

And the “animals survived EPED3 toxicity for at least 5 days” value [3]?
The value was “five out of six”.

And the IC50 ([4]; 8226/Dox1V, 96 hours)?
The IC50 was 131 nM.

What about the “resistance of 8226/Dox1V versus parental RPMI 8226” value ([4]; ratio of IC50, 96 hours) of the same compound?
The value was “no significant resistance”.

And the “dosages for animals surviving the toxicity of the compounds” value [5]?
Its value is 25.0 mg/kg body weight.

And the “cell viability” value ([6]; 0.02 (unit uncertain), Day 1)?
Its value is 173,140.

And the “cell viability” value ([6]; 0.02 (unit uncertain), Day 2)?
The value was 383,737.

And the “cell viability” value ([6]; 0.02 (unit uncertain), Day 3)?
Its value is 780,458.

What about the “cell viability” value ([6]; 0.02 (unit uncertain), Day 4) of the same compound?
The value was 1,670,491.

What about the “cell viability” value ([6]; 0.02 (unit uncertain), Day 5) of the same compound?
Its value is 3,108,577.

And the “cell viability” value ([6]; 0.2 (unit uncertain), Day 1)?
Its value is 103,658.

And the “cell viability” value ([6]; 0.2 (unit uncertain), Day 2)?
Its value is 105,998.

And the “cell viability” value ([6]; 0.2 (unit uncertain), Day 3)?
The value was 111,306.

What about the “cell viability” value ([6]; 0.2 (unit uncertain), Day 4) of the same compound?
Its value is 123,316.

And the “cell viability” value ([6]; 0.2 (unit uncertain), Day 5)?
Its value is 64,052.

And the “cell viability” value ([6]; 2 (unit uncertain), Day 1)?
Its value is 76,441.

And the “cell viability” value ([6]; 2 (unit uncertain), Day 2)?
The value was 39,273.

What about the “cell viability” value ([6]; 2 (unit uncertain), Day 3) of the same compound?
Its value is 23,807.

What about the “cell viability” value ([6]; 2 (unit uncertain), Day 4) of the same compound?
Its value is 19,546.

And the “cell viability” value ([6]; 2 (unit uncertain), Day 5)?
The value was 5,483.

And the “killing of fetal bone derived normal mesenchymal cells” value [7]?
Its value is “not killed”.

What about the “cell viability” value ([8]; 0.02 (unit uncertain), Day 1) of the same compound?
Its value is 99,050.

And the “cell viability” value ([8]; 0.02 (unit uncertain), Day 2)?
The value was 187,835.

And the “cell viability” value ([8]; 0.02 (unit uncertain), Day 3)?
The value was 297,927.

And the “cell viability” value ([8]; 0.02 (unit uncertain), Day 4)?
Its value is 764,382.

What about the “cell viability” value ([8]; 0.02 (unit uncertain), Day 5) of the same compound?
The value was 982,255.

What about the “cell viability” value ([8]; 0.2 (unit uncertain), Day 1) of the same compound?
Its value is 1,085.

What about the “cell viability” value ([8]; 0.2 (unit uncertain), Day 2) of the same compound?
Its value is 489.

What about the “cell viability” value ([8]; 0.2 (unit uncertain), Day 3) of the same compound?
The value was 384.

And the “cell viability” value ([8]; 0.2 (unit uncertain), Day 4)?
Its value is 530.

And the “cell viability” value ([8]; 0.2 (unit uncertain), Day 5)?
Its value is 376.

And the “cell viability” value ([8]; 2 (unit uncertain), Day 1)?
The value was 523.

And the “cell viability” value ([8]; 2 (unit uncertain), Day 2)?
Its value is 342.

What about the “cell viability” value ([8]; 2 (unit uncertain), Day 3) of the same compound?
The value was 366.

What about the “cell viability” value ([8]; 2 (unit uncertain), Day 4) of the same compound?
Its value is 478.

And the “cell viability” value ([8]; 2 (unit uncertain), Day 5)?
The value was 299.

Which results are given for `CC(C)C[C@H](NC(=O)[C@H](Cc1ccccc1)NC(=O)c1cnccn1)B(O)O` [Velcade, bortezomib, reference compound]?
effective low dose ([9]; absence of stromal cells): 4 nM; reduction in sensitivity ([9]; co-culture versus absence of stromal cells, data not shown): more than 100 fold; tolerance of myeloma cells to Velcade ([9]; co-culture with human fetal bone mesenchymal cells, data not shown): up to 500 nM

— patent US20070027175A1, “Antineoplastic activities of ellipticine and its derivatives” (priority 2005, published 2007)
